Measured values reported in patent publication US11053204B2, “Pyrimidinyloxy benzene derivatives as herbicides” (FMC Corporation, priority 2015, dated 2021).

What was measured:
Test in all cases: Test C flooded paddy test, plant response rating
Type in all cases: in vivo
Details in all cases: flood, scale 0 to 100
[1] = test system: ducksalad (Heteranthera limosa)
Source text: (§1) At the same time, plants selected from these crop and weed species and also chickweed (common chickweed, Stellaria media), buckwheat, wild (wild buckwheat, Polygonum convolvulus), wild mustard (Sinapis arvensis), field poppy (Papaver rhoeas), field violet (Viola arvensis), geranium, cutleaf (cutleaf geranium, Geranium dissectum), Canada thistle (Cirsium arvense), and speedwell (bird's-eye speedwell, Veronica persica), were planted in pots containing Sunshine Redi-Earth® planting medium comprising spaghnum peat moss, vermiculite, starter nutrients and dolomitic limestone and treated with postemergence applications of test chemicals formulated in the same manner. Plants ranged in height from 2 to 18 cm (1- to 4-leaf stage) for postemergence treatments. Treated plants and controls were maintained in a greenhouse for 13 to 15 d, after which time all species were compared to controls and visually evaluated. Plant response ratings, summarized in Table C, are based on a scale of 0 to 100 where 0 is no effect and 100 is complete control. A dash (-) response means no test result.
(§2) Plant species in the flooded paddy test consisted of rice (Oryza sativa), sedge, umbrella (small-flower umbrella sedge Cyperus difformis), ducksalad (Heteranthera limosa), and barnyardgrass (Echinochloa crus-galli) grown to the 2-leaf stage for testing. At time of treatment, test pots were flooded to 3 cm above the soil surface, treated by application of test compounds directly to the paddy water, and then maintained at that water depth for the duration of the test.

[2] = test system: barnyardgrass (Echinochloa crus-galli)
Source text: as §1, §2

rice (Oryza sativa) = test system: rice (Oryza sativa)
Source text: as §1, §2

[3] = test system: sedge, umbrella (small-flower umbrella sedge Cyperus difformis)
Source text: as §1, §2

Structure (SMILES)	Ducksalad plant response rating ([1]; 31 g ai/ha)	Ducksalad plant response rating ([1]; 62 g ai/ha)	Ducksalad plant response rating ([1]; 125 g ai/ha)	Ducksalad plant response rating ([1]; 250 g ai/ha)	Barnyardgrass plant response rating ([2]; 31 g ai/ha)	Barnyardgrass plant response rating ([2]; 62 g ai/ha)	Barnyardgrass plant response rating ([2]; 125 g ai/ha)	Barnyardgrass plant response rating ([2]; 250 g ai/ha)	Rice plant response rating (rice (Oryza sativa); 31 g ai/ha)	Rice plant response rating (rice (Oryza sativa); 62 g ai/ha)	Rice plant response rating (rice (Oryza sativa); 125 g ai/ha)	Rice plant response rating (rice (Oryza sativa); 250 g ai/ha)	Sedge, Umbrella plant response rating ([3]; 31 g ai/ha)	Sedge, Umbrella plant response rating ([3]; 62 g ai/ha)	Sedge, Umbrella plant response rating ([3]; 125 g ai/ha)	Sedge, Umbrella plant response rating ([3]; 250 g ai/ha)
O=C(CCC(F)(F)F)c1c(Br)cccc1Oc1ncc(Cl)cn1 [Compound 92]	30	60	95	100	0	0	20	40	10	15	15	15	20	60	90	100
C=C(Br)COC(=O)c1c(Br)cccc1Oc1ncc(Cl)cn1 [Compound 61]	50	75	90	90	0	0	20	40	20	20	20	20	80	80	85	85
